Reference: publication PMC6008299, “Impact of race on dose selection of molecular-targeted agents in early-phase oncology trials” (British Journal of Cancer, 2018)

How the values were obtained:
[1] = system: patients with advanced, refractory solid tumours; experiment: Phase I dose-escalation study J102 (Japan): safety, DLT, MTD; format: in vivo
From the text: Studies were approved by the Institutional Review Board at the participating institutions and regulatory authorities. Written informed consent in English and Japanese was obtained from all patients prior to enrollment.
Secondary and exploratory objectives were to evaluate PK, tumour response, and PD effects. Treatment-emergent adverse events (TEAE) were graded using the Common Terminology Criteria for Adverse Events version 4.0. A dose-limiting toxicity (DLT) was defined as a grade ≥3 clinically significant toxicity, with the exceptions of grade ≥4 anaemia and prolonged grade 3 neutropenia. Both studies were open-label, phase I dose-escalation studies. In Japan, the study was conducted at a single centre, while the US study was conducted at three sites. […] In the US, an accelerated titration design was used at low doses followed by a mCRM with EWOC. Briefly, the dose was escalated based on safety data in a single patient until a grade 2 or higher toxicity was observed during cycle 1 or the DLT period (days 1–28). […] Prophylactic granulocyte colony-stimulating factor and antiemetics were not permitted during cycle 1.

advanced solid tumours = experiment: Tumour assessment RECIST 1.1, both studies; format: in vivo, human; conditions: either study
Method: In both studies, the PK profile of DS-7423 was characterised during cycle 1 on days 1 and 8. For PD analysis, glucose, C-peptide, and Akt phosphorylation were measured in platelet-rich plasma collected at predose, 1, 2, 4, 6, and 24 h after dosing on days 1 and 15. Tumour assessment was performed every two cycles using Response Evaluation Criteria in Solid Tumours (RECIST) version 1.1 in both studies. 18F-Fluoro-2-deoxy-D-glucose positron emission tomography ([18F]-FDG) was performed as an exploratory endpoint at baseline and on day 4.[10]

[2] = 96 mg, Japanese cohort (56–96 mg group, n = 6)
[3] = 4–32 mg Japanese cohort (n = 12)
[4] = 56–96 mg Japanese cohort (n = 6)

CC(=O)N1CCN(c2nc3c(N4CCOCC4)nc(-c4cnc(N)nc4)nc3n2CC(F)(F)F)C[C@H]1C [DS-7423]
0: AST increased (TEAE), n patients ([1]; 160 mg Japanese cohort (n = 3)) | Back pain (TEAE), n patients ([1]; 160 mg Japanese cohort (n = 3)) | Blood creatinine increased (TEAE), n patients ([1]; 160 mg Japanese cohort (n = 3)) | Dehydration (TEAE), n patients ([1]; 160 mg Japanese cohort (n = 3)) | Dry mouth (TEAE), n patients ([1]; 160 mg Japanese cohort (n = 3)) | Lung infection/ pneumonia (TEAE), n patients ([1]; 160 mg Japanese cohort (n = 3)) | AST increased (TEAE), n patients ([1]; 240 mg Japanese cohort (n = 6)) | Blood creatinine increased (TEAE), n patients ([1]; 240 mg Japanese cohort (n = 6)) | Dehydration (TEAE), n patients ([1]; 240 mg Japanese cohort (n = 6)) | Dyspnea (TEAE), n patients ([1]; 240 mg Japanese cohort (n = 6)) | AST increased (TEAE), n patients [1, 3] | Dehydration (TEAE), n patients [1, 3] | Dry mouth (TEAE), n patients [1, 3] | Hyperglycaemia (TEAE), n patients [1, 3] | Lung infection/ pneumonia (TEAE), n patients [1, 3] | Pyrexia (TEAE), n patients [1, 3] | Back pain (TEAE), n patients [1, 4] | Blood creatinine increased (TEAE), n patients [1, 4] | Dehydration (TEAE), n patients [1, 4] | Dyspnea (TEAE), n patients [1, 4] | Lung infection/ pneumonia (TEAE), n patients [1, 4] | Pyrexia (TEAE), n patients [1, 4]
1 (1 G3): Hyperglycaemia (TEAE), n patients ([1]; 160 mg Japanese cohort (n = 3)) | Hyperglycaemia G3, n patients ([1]; 160 mg Japanese cohort (n = 3)) | Lung infection/ pneumonia (TEAE), n patients ([1]; 240 mg Japanese cohort (n = 6)) | Lung infection/ pneumonia G3, n patients ([1]; 240 mg Japanese cohort (n = 6))
4: Decreased appetite (TEAE), n patients ([1]; 240 mg Japanese cohort (n = 6)) | Vomiting (TEAE), n patients [1, 3] | Diarrhoea (TEAE), n patients [1, 4] | Rash (TEAE), n patients [1, 4]
lung infections and hyperglycaemia: Grade 3 DLT ([1]; Japanese study, 240-mg cohort)
1 (1 G4): Hyperglycaemia (TEAE), n patients ([1]; 240 mg Japanese cohort (n = 6)) | Hyperglycaemia G4, n patients ([1]; 240 mg Japanese cohort (n = 6))
2: Cough (TEAE), n patients ([1]; 160 mg Japanese cohort (n = 3)) | Diarrhoea (TEAE), n patients ([1]; 160 mg Japanese cohort (n = 3)) | Dysgeusia (TEAE), n patients ([1]; 160 mg Japanese cohort (n = 3)) | Rash (TEAE), n patients ([1]; 160 mg Japanese cohort (n = 3)) | Stomatitis (TEAE), n patients ([1]; 160 mg Japanese cohort (n = 3)) | Vomiting (TEAE), n patients ([1]; 160 mg Japanese cohort (n = 3)) | Fatigue (TEAE), n patients ([1]; 240 mg Japanese cohort (n = 6)) | Pyrexia (TEAE), n patients ([1]; 240 mg Japanese cohort (n = 6)) | Dyspnea (TEAE), n patients [1, 3] | Edema (TEAE), n patients [1, 3] | Decreased appetite (TEAE), n patients [1, 4] | Hyperglycaemia (TEAE), n patients [1, 4]
7: Decreased appetite (TEAE), n patients [1, 3]
5: Diarrhoea (TEAE), n patients ([1]; 240 mg Japanese cohort (n = 6)) | Rash (TEAE), n patients ([1]; 240 mg Japanese cohort (n = 6)) | Fatigue (TEAE), n patients [1, 3]
240 mg: MTD ([1]; Japanese study, Asian patients)
no PR or CR: Response by RECIST 1.1 (advanced solid tumours)
1: Hyperglycaemia G3, n patients ([1]; 56 mg, Japanese cohort (56–96 mg group, n = 6)) | Diarrhoea G3, n patients [1, 2] | Hyperglycaemia G3, n patients [1, 2] | Abdominal pain (TEAE), n patients ([1]; 160 mg Japanese cohort (n = 3)) | Constipation (TEAE), n patients ([1]; 160 mg Japanese cohort (n = 3)) | Decreased appetite G3, n patients ([1]; 160 mg Japanese cohort (n = 3)) | Diarrhoea G3, n patients ([1]; 160 mg Japanese cohort (n = 3)) | Dyspnea (TEAE), n patients ([1]; 160 mg Japanese cohort (n = 3)) | Edema (TEAE), n patients ([1]; 160 mg Japanese cohort (n = 3)) | Fatigue (TEAE), n patients ([1]; 160 mg Japanese cohort (n = 3)) | Pyrexia (TEAE), n patients ([1]; 160 mg Japanese cohort (n = 3)) | Abdominal pain (TEAE), n patients ([1]; 240 mg Japanese cohort (n = 6)) | Back pain (TEAE), n patients ([1]; 240 mg Japanese cohort (n = 6)) | Constipation (TEAE), n patients ([1]; 240 mg Japanese cohort (n = 6)) | Cough (TEAE), n patients ([1]; 240 mg Japanese cohort (n = 6)) | Dry mouth (TEAE), n patients ([1]; 240 mg Japanese cohort (n = 6)) | Abdominal pain (TEAE), n patients [1, 3] | Back pain (TEAE), n patients [1, 3] | Blood creatinine increased (TEAE), n patients [1, 3] | Cough (TEAE), n patients [1, 3] | AST increased (TEAE), n patients [1, 4] | Abdominal pain (TEAE), n patients [1, 4] | Constipation (TEAE), n patients [1, 4] | Cough (TEAE), n patients [1, 4] | Dry mouth (TEAE), n patients [1, 4] | Dysgeusia (TEAE), n patients [1, 4] | Edema (TEAE), n patients [1, 4] | Nausea (TEAE), n patients [1, 4] | Stomatitis (TEAE), n patients [1, 4] | Vomiting (TEAE), n patients [1, 4]
3: Decreased appetite (TEAE), n patients ([1]; 160 mg Japanese cohort (n = 3)) | Nausea (TEAE), n patients ([1]; 160 mg Japanese cohort (n = 3)) | Dysgeusia (TEAE), n patients ([1]; 240 mg Japanese cohort (n = 6)) | Edema (TEAE), n patients ([1]; 240 mg Japanese cohort (n = 6)) | Vomiting (TEAE), n patients ([1]; 240 mg Japanese cohort (n = 6)) | Constipation (TEAE), n patients [1, 3] | Dysgeusia (TEAE), n patients [1, 3] | Rash (TEAE), n patients [1, 3] | Stomatitis (TEAE), n patients [1, 3] | Fatigue (TEAE), n patients [1, 4]
6: Nausea (TEAE), n patients ([1]; 240 mg Japanese cohort (n = 6)) | Stomatitis (TEAE), n patients ([1]; 240 mg Japanese cohort (n = 6)) | Diarrhoea (TEAE), n patients [1, 3] | Nausea (TEAE), n patients [1, 3]
